Converted amounts (≈) assume the structure as drawn. “And” between values parts separate entries of the source, which are not always exact repeats. Equal entries are not always repeated.
Experiments:
Assay in all cases: ≥ marks a high value that may be exact or a test limit, other limits are often not marked, values filed in µg/mL are converted to µM
[1] = system: Klebsiella pneumoniae ATCC 43816
[2] = system: Staphylococcus aureus NCTC 10788
[3] = system: Candida albicans ATCC 2002
[4] = system: Enterococcus faecium NTCC 12697
[5] = system: Escherichia coli ATCC 8739
[6] = system: Escherichia coli ATCC 25922
[7] = system: Staphylococcus aureus ATCC 25923
[8] = system: Bacillus subtilis ATCC 6633
[9] = system: Staphylococcus aureus ATCC 43300
[10] = system: Staphylococcus aureus NCTC 12493
[11] = system: Pseudomonas aeruginosa ATCC 9027
[12] = system: Staphylococcus aureus ATCC 6538
[13] = system: Pseudomonas aeruginosa CMCCB 10104
[14] = system: Penicillium digitatum PHI-26
[15] = system: Pseudomonas aeruginosa ATCC 27853
[16] = system: Streptococcus agalactiae ATCC 12386
[17] = system: Staphylococcus aureus ATCC 29213
[18] = system: Klebsiella pneumoniae ATCC 13883
[19] = system: Enterococcus faecalis ATCC 29212
[20] = system: Bacillus licheniformis X39
[21] = system: Rhodococcus rhodochrous X15
[22] = system: Staphylococcus carnosus KHS
[23] = system: Psychrobacter faecalis X29
Serratia rubidaea X01 = system: Serratia rubidaea X01
[24] = system: Enterococcus faecalis 981
[25] = system: Klebsiella pneumoniae 08040724
[26] = system: Pseudomonas aeruginosa KCTC 1637
[27] = system: Salmonella typhimurium KCTC 1926
[28] = system: Staphylococcus epidermidis KCTC 1917
[29] = system: Staphylococcus aureus KCTC 1621
[30] = system: Bacillus subtilis KCTC 3068
[31] = system: Pseudomonas aeruginosa H1001
[32] = system: Escherichia coli KCTC 1682
[33] = system: Brucella abortus 9.49 (per-)
Yersinia pestis KIM pYV = system: Yersinia pestis KIM pYV
Staphylococcus aureus = system: Staphylococcus aureus
[34] = system: Staphylococcus aureus ΔmprFpRBsyn
[35] = system: Acinetobacter baumannii ATCC 19606
[36] = system: Staphylococcus aureus ΔmprF
[37] = system: Pseudomonas aeruginosa CUN 4158-02
[38] = system: Bordetella bronchiseptica CUN 11844-99

Molecule `CC[C@H](C)[C@@H]1NC(=O)[C@H](CCCCN)NC(=O)[C@@H](NC(=O)[C@H](CCCCN)NC(=O)[C@H](CC(C)C)NC(=O)[C@H](CCCCN)NC(=O)[C@H](CC(=O)O)NC(=O)[C@H](CC(C)C)NC(=O)[C@H](CC(C)C)NC(=O)[C@@H](NC(=O)[C@H](C)NC(=O)[C@H](C)NC(=O)[C@@H](NC(=O)[C@H](CC(N)=O)NC(=O)[C@H](CCCCN)NC(=O)[C@H](C)NC(=O)[C@@H](NC(=O)[C@H](CC(N)=O)NC(=O)[C@H](CCCCN)NC(=O)[C@H](C)NC(=O)[C@@H](NC(=O)[C@H](CC(=O)O)NC(=O)[C@H](CCSC)NC(=O)[C@H](Cc2ccccc2)NC(=O)CN)[C@@H](C)O)C(C)C)C(C)C)[C@@H](C)O)CSSC[C@@H](C(=O)O)NC(=O)CNC(=O)CNC(=O)[C@H]([C@@H](C)O)NC1=O` [GFMDTAKNVAKNVAATLLDKLKCKITGGC] has an MIC [1] of at least 128 µM, an MIC [2] of at least 32 µM and an MIC [3] of 4.81 µM (≈ 14.5 µg/mL). For the same molecule, the MIC [4] was at least 256 µM, the MIC [5] was at least 100 µM and the MIC [6] was 4.81 µM (≈ 14.5 µg/mL). It also gave an MIC [7] of 2.42 µM (≈ 7.3 µg/mL), an MIC [8] of 12.5 µM (≈ 37.6 µg/mL) and an MIC [9] of over 100 µM. For the same molecule, the MIC [10] was at least 256 µM, the MIC [11] was at least 128 µM and the MIC [12] was 25 µM (≈ 75.2 µg/mL). The MIC [13] was 4.81 µM (≈ 14.5 µg/mL).

In the case of `CC[C@H](C)[C@H](NC(=O)CN)C(=O)NCC(=O)N[C@@H](C)C(=O)N[C@H](C(=O)N[C@@H](CC(C)C)C(=O)N[C@H](C(=O)N[C@H](C(=O)N[C@@H](CC(C)C)C(=O)N[C@H](C(=O)N[C@H](C(=O)NCC(=O)N[C@@H](CC(C)C)C(=O)N1CCC[C@H]1C(=O)N[C@@H](C)C(=O)N[C@@H](CC(C)C)C(=O)N[C@H](C(=O)N[C@@H](CO)C(=O)N[C@@H](Cc1c[nH]c2ccccc12)C(=O)N[C@H](C(=O)N[C@@H](CCCCN)C(=O)N[C@@H](CCCN=C(N)N)C(=O)N[C@@H](CCCCN)C(=O)N[C@@H](CCCN=C(N)N)C(=O)N[C@@H](CCC(N)=O)C(=O)N[C@@H](CCC(N)=O)C(N)=O)[C@@H](C)CC)[C@@H](C)CC)[C@@H](C)O)[C@@H](C)O)C(C)C)[C@@H](C)CC)C(C)C` [GIGAVLIVLTTGLPALISWIKRKRQQ], the MIC [14] is reported as 8 µM and 15 µM.

With `CC[C@H](C)[C@H](NC(=O)CN)C(=O)NCC(=O)N[C@@H](CCCCN)C(=O)N[C@@H](Cc1ccccc1)C(=O)N[C@@H](CC(C)C)C(=O)N[C@@H](Cc1cnc[nH]1)C(=O)N[C@@H](CO)C(=O)N[C@@H](C)C(=O)N[C@@H](CCCCN)C(=O)N[C@@H](CCCCN)C(=O)N[C@@H](Cc1ccccc1)C(=O)N[C@@H](C)C(=O)N[C@@H](CCCCN)C(=O)N[C@@H](C)C(=O)N[C@@H](Cc1ccccc1)C(=O)N[C@H](C(=O)N[C@@H](C)C(=O)N[C@@H](CCC(=O)O)C(=O)N[C@H](C(=O)N[C@@H](CCSC)C(=O)N[C@@H](CC(N)=O)C(=O)N[C@@H](CO)C(N)=O)[C@@H](C)CC)C(C)C` [GIGKFLHSAKKFAKAFVAEIMNS] the MIC [15] was 20 µM (≈ 50 µg/mL), the MIC [16] was 0.401 µM (≈ 1 µg/mL) and the MIC [17] was 4.01 µM (≈ 10 µg/mL). The MIC [6] was 2 µM (≈ 5 µg/mL), the MIC [18] was 10 µM (≈ 25 µg/mL) and the MIC [7] was 10 µM (≈ 25 µg/mL). It also gave an MIC [19] of 10 µM (≈ 25 µg/mL).

`CC[C@H](C)[C@@H]1NC(=O)CNC(=O)[C@@H](NC(=O)[C@H](CCCN=C(N)N)NC(=O)[C@@H](NC(=O)[C@H](CCCCN)NC(=O)[C@H](CC(=O)O)NC(=O)[C@H](CC(C)C)NC(=O)[C@@H](NC(=O)[C@H](CC(N)=O)NC(=O)[C@@H](NC(=O)[C@H](C)NC(=O)[C@H](Cc2ccccc2)NC(=O)[C@H](CCCCN)NC(=O)[C@H](CCCCN)NC(=O)CNC(=O)[C@H](C)NC(=O)[C@H](CCC(=O)O)NC(=O)[C@H](CCCCN)NC(=O)[C@@H](NC(=O)[C@@H](NC(=O)[C@H](CC(N)=O)NC(=O)[C@H](Cc2c[nH]c3ccccc23)NC(=O)[C@H](CC(C)C)NC(=O)CN)[C@@H](C)O)[C@@H](C)CC)[C@@H](C)CC)C(C)C)[C@@H](C)CC)CSSC[C@@H](C(=O)N[C@@H](CCCCN)C(=O)N[C@H](C(=O)O)[C@@H](C)O)NC(=O)CNC(=O)CNC(=O)[C@H](C)NC1=O` [GLWNTIKEAGKKFAINVLDKIRCGIAGGCKT] showed an MIC [20] of 19 µM (≈ 62.8 µg/mL), an MIC [21] of 2.3 µM (≈ 7.6 µg/mL) and an MIC [6] of 150 µM (≈ 496 µg/mL). The MIC [22] was 19 µM (≈ 62.8 µg/mL), the MIC [7] was 150 µM (≈ 496 µg/mL) and the MIC [23] was 4.5 µM (≈ 14.9 µg/mL). For the same molecule, the MIC (Serratia rubidaea X01) was 4.6 µM (≈ 15.2 µg/mL), the MIC [24] was at least 75 µM and the MIC [25] was at least 150 µM.

For `CC[C@H](C)[C@H](N)C(=O)N[C@@H](CC(C)C)C(=O)N[C@@H](CCCCN)C(=O)N[C@@H](Cc1c[nH]c2ccccc12)C(=O)N[C@@H](CCCCN)C(=O)N[C@@H](Cc1c[nH]c2ccccc12)C(=O)N1CCC[C@H]1C(=O)N[C@@H](Cc1c[nH]c2ccccc12)C(=O)N[C@@H](Cc1c[nH]c2ccccc12)C(=O)N1CCC[C@H]1C(=O)N[C@@H](Cc1c[nH]c2ccccc12)C(=O)N[C@@H](CCCN=C(N)N)C(=O)N[C@@H](CCCN=C(N)N)C(N)=O` [ILKWKWPWWPWRR], the MIC [26] was 10.3 µM (≈ 20 µg/mL), the MIC [27] was 5.16 µM (≈ 10 µg/mL) and the MIC [28] was 5.16 µM (≈ 10 µg/mL). The MIC [29] was 2.58 µM (≈ 5 µg/mL), the MIC [30] was 2.58 µM (≈ 5 µg/mL) and the MIC [31] was 5.16 µM (≈ 10 µg/mL). It also gave an MIC [32] of 5.16 µM (≈ 10 µg/mL).

With `CC[C@H](C)[C@H](NC(=O)[C@H](CCCN=C(N)N)NC(=O)[C@H](CCCN=C(N)N)NC(=O)[C@H](CC(C)C)NC(=O)[C@H](Cc1ccccc1)NC(=O)[C@@H](NC(=O)[C@H](CCCN=C(N)N)NC(=O)[C@H](CCSC)NC(=O)[C@@H](NC(=O)[C@H](CCCCN)NC(=O)[C@H](CCCCN)NC(=O)[C@H](CO)NC(=O)[C@@H](NC(=O)CNC(=O)[C@H](CCCN=C(N)N)NC(=O)[C@H](CC(C)C)NC(=O)[C@@H](NC(=O)[C@@H](N)CCCCN)[C@@H](C)CC)C(C)C)[C@@H](C)CC)[C@@H](C)O)C(=O)N[C@@H](CO)C(=O)N[C@@H](CCCCN)C(=O)N[C@@H](CC(=O)O)C(=O)N[C@H](C(=O)N[C@@H](CC(C)C)C(=O)N[C@H](C(=O)NCC(=O)N[C@@H](CCCCN)C(=O)N[C@@H](CCCCN)C(N)=O)[C@@H](C)O)[C@@H](C)CC` [KILRGVSKKIMRTFLRRISKDILTGKK] the MIC [33] was 0.628 µM (≈ 2 µg/mL), the MIC (Yersinia pestis KIM pYV) was 5.02 µM (≈ 16 µg/mL) and the MIC (Staphylococcus aureus) was 20.1 µM (≈ 64 µg/mL). The MIC [34] was 1.26 µM (≈ 4 µg/mL), the MIC [35] was 0.628 µM (≈ 2 µg/mL) and the MIC [6] was 1.26 µM (≈ 4 µg/mL). The MIC [9] was 40.2 µM (≈ 128 µg/mL), the MIC [36] was 1.26 µM (≈ 4 µg/mL) and the MIC [37] was 1.26 µM (≈ 4 µg/mL). It also gave an MIC [38] of 1.26 µM (≈ 4 µg/mL).
